Among the data in patent US20140058103A1, “Inhibitors of PI3K-Delta and Methods of Their Use and Manufacture” (Exelixis, Inc., priority 2010, published 2014) are IC50 values, retold here.

Usually IC50 stands for the concentration that inhibits the measured activity by half. A low value points to higher potency.

For this assay, the target named is PI3K delta (Homo sapiens, UniProt O00329). As to the kind of experiment: Luciferase-coupled chemiluminescence kinase assay (ATP consumption, KinaseGlo). The assay is classed as biochemical. The essentials:
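ATP consumption measured by KinaseGlo luciferase chemiluminescence after a 2 h reaction at ambient temperature, with ATP at or below the kinase KM. Ten inhibitor concentrations per curve; IC50 from four-parameter nonlinear regression.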
A general note: In Kinase-Glo more light means more ATP remaining.

PI3K delta, sequence (O00329 whole entry): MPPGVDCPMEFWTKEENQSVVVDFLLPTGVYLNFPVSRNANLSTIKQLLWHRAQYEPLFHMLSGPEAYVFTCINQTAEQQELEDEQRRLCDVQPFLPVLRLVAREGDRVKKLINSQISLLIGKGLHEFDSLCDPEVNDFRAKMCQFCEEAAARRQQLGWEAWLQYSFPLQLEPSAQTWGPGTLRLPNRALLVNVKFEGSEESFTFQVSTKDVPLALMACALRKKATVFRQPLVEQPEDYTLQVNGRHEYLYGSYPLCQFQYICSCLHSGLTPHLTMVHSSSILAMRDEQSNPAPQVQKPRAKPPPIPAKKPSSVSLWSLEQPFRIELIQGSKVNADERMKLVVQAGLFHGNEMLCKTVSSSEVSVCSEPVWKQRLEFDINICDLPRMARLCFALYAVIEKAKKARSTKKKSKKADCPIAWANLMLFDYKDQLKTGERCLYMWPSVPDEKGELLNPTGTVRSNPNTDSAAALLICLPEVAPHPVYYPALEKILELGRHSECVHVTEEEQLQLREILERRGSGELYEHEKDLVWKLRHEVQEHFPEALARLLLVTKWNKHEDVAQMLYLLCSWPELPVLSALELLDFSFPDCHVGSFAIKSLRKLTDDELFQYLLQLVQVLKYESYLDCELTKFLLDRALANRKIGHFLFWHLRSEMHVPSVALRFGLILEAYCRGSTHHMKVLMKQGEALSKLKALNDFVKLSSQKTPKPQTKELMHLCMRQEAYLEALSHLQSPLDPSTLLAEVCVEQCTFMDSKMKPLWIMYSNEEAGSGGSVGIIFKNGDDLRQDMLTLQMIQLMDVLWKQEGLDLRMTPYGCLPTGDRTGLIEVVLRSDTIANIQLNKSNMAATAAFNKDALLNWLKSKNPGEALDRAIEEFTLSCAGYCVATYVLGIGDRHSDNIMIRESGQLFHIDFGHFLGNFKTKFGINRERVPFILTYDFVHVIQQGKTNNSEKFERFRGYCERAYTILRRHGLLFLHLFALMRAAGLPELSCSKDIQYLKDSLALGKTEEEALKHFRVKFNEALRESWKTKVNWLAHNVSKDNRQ
PI3K delta, sequence (P27986 whole entry partner): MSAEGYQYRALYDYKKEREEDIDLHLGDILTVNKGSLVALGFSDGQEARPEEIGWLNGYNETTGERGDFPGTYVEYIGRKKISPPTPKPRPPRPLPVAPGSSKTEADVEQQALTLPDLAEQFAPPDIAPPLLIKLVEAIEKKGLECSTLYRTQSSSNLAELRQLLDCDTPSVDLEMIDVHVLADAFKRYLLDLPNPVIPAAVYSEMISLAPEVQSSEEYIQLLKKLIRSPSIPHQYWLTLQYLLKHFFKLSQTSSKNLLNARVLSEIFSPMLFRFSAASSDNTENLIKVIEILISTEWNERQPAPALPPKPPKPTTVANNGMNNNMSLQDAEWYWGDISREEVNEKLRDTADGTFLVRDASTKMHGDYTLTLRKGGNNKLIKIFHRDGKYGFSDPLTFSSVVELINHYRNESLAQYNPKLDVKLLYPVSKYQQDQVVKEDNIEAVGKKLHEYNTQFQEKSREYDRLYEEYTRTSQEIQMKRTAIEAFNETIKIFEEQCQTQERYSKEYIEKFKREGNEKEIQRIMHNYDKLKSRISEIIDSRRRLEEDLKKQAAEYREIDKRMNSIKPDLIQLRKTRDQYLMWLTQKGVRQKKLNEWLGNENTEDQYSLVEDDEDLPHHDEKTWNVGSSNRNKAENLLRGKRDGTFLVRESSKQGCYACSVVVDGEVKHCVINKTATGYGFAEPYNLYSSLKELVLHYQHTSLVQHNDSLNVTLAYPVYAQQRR

Consider `Cn1cc(-c2nc3c(N4CCN(S(=O)(=O)c5cccc(C#N)c5)CC4)ncnc3n2C)cn1` [Compound 382, 3-({4-[9-methyl-8-(1-methyl-1H-pyrazol-4-yl)-9H-purin-6-yl]piperazin-1-yl)sulfonyl)benzonitrile], for which the IC50 lay in the range of 250 to 500 nM.
Consider `Cn1cc(-c2nc3c(N4CCN(S(=O)(=O)c5ccc(F)cc5F)CC4)ncnc3n2C)cn1` [Compound 383, 6-{4-[(2,4-difluorophenyl)sulfonyl]piperazin-1-yl)-9-methyl-8-(1-methyl-1H-pyrazol-4-yl)-9H-purine], for which the IC50 was 500 to 1500 nM.
With `CC(=O)c1ccc(S(=O)(=O)N2CCN(c3ncnc4c3nc(-c3cnn(C)c3)n4C)CC2)cc1` [Compound 384, 1-[4-({4-[9-methyl-8-(1-methyl-1H-pyrazol-4-yl)-9H-purin-6-yl]piperazin-1-yl)sulfonyl)phenyl]ethanone] the figure was 500 to 1500 nM.
Regarding `COc1cc(C)ccc1S(=O)(=O)N1CCN(c2ncnc3c2nc(-c2cnn(C)c2)n3C)CC1` [Compound 385, 9-methyl-6-(4-{[4-methyl-2-(methyloxy)phenyl]sulfonyl}-piperazin-1-yl)-8-(1-methyl-1H-pyrazol-4-yl)-9H-purine], the half-maximal inhibitory concentration (IC50) lay within 500 to 1500 nM.
With `Cc1cccc(Cl)c1S(=O)(=O)N1CCN(c2ncnc3c2nc(-c2cnn(C)c2)n3C)CC1` [Compound 386, 6-{4-[(2-chloro-6-methylphenyl)sulfonyl]piperazin-1-yl)-9-methyl-8-(1-methyl-1H-pyrazol-4-yl)-9H-purine] the figure was 250 to 500 nM.
In the case of `COc1ccc(S(=O)(=O)N2CCN(c3ncnc4c3nc(-c3cnn(C)c3)n4C)CC2)cc1OC` [Compound 387, 6-(4-{[3,4-bis(methyloxy)phenyl]sulfonyl}-piperazin-1-yl)-9-methyl-8-(1-methyl-1H-pyrazol-4-yl)-9H-purine] it was 500 to 1500 nM; in that of `COc1ccc(Cl)cc1S(=O)(=O)N1CCN(c2ncnc3c2nc(-c2cnn(C)c2)n3C)CC1` [Compound 388, 6-(4-{[5-chloro-2-(methyloxy)phenyl]sulfonyl}-piperazin-1-yl)-9-methyl-8-(1-methyl-1H-pyrazol-4-yl)-9H-purine], 50 to 250 nM; in that of `Cn1cc(-c2nc3c(N4CCN(S(=O)(=O)c5cccc(Cl)c5Cl)CC4)ncnc3n2C)cn1` [Compound 389, 6-{4-[(2,3-dichlorophenyl)sulfonyl]piperazin-1-yl}-9-methyl-8-(1-methyl-1H-pyrazol-4-yl)-9H-purine], 250 to 500 nM.
In the case of `Cn1cc(-c2nc3c(N4CCN(S(=O)(=O)c5cccnc5Cl)CC4)ncnc3n2C)cn1` [Compound 390, 6-{4-[(2-chloropyridin-3-yl)sulfonyl]piperazin-1-yl}-9-methyl-8-(1-methyl-1H-pyrazol-4-yl)-9H-purine] it was 500 to 1500 nM; in that of `Cn1cc(-c2nc3c(N4CCN(S(=O)(=O)c5c(Cl)cccc5Cl)CC4)ncnc3n2C)cn1` [Compound 391, 6-{4-[(2,6-dichlorophenyl)sulfonyl]piperazin-1-yl}-9-methyl-8-(1-methyl-1H-pyrazol-4-yl)-9H-purine], 250 to 500 nM.
`Cn1cc(-c2nc3c(N4CCN(S(=O)(=O)c5ccc(Cl)cc5Cl)CC4)ncnc3n2C)cn1` [Compound 392, 6-{4-[(2,4-dichlorophenyl)sulfonyl]piperazin-1-yl}-9-methyl-8-(1-methyl-1H-pyrazol-4-yl)-9H-purine]: the IC50 fell in the range of 500 to 1500 nM.
Turning to `Cc1c(-c2nc3c(N4CCC5(CC4)C(=O)Nc4ccccc45)ncnc3n2C)cnn1C` [Compound 393, 1′-(8-(1,5-dimethyl-1H-pyrazol-4-yl)-9-methyl-9H-purin-6-yl)spiro[indoline-3,4′-piperidin]-2-one], the half-maximal inhibitory concentration (IC50) was 500 to 1500 nM.
Take `Cc1[nH]ncc1-c1nc2c(N3CCC(n4c(=O)[nH]c5ncccc54)CC3)ncnc2n1C` [Compound 394, 1-{1-[9-methyl-8-(5-methyl-1H-pyrazol-4-yl)-9H-purin-6-yl]piperidin-4-yl}-1,3-dihydro-2H-imidazo[4,5-b]pyridin-2-one]: the IC50 is under 50 nM.
Turning to `Cn1c(C(=O)NCCc2ccccc2)nc2c(N3CCC4(CC3)C(=O)Nc3ccccc34)ncnc21` [Compound 395, 9-methyl-6-(2-oxo-1,2-dihydro-1′H-spiro[indole-3,4′-piperidin]-1′-yl)-N-(2-phenylethyl)-9H-purine-8-carboxamide], the IC50 fell in the range of 500 to 1500 nM.
The compound `Cn1c(C(=O)N2CC[C@H](F)C2)nc2c(N3CCC(n4c(=O)[nH]c5ccccc54)CC3)ncnc21` [Compound 396, 1-[1-(8-{[(3S)-3-fluoropyrrolidin-1-yl]carbonyl)-9-methyl-9H-purin-6-yl)piperidin-4-yl]-1,3-dihydro-2H-benzimidazol-2-one] had a half-maximal inhibitory concentration (IC50) of 50 to 250 nM.
`CN(C)CCN1C(=O)C2(CCN(c3ncnc4c3nc(C(=O)NCC3CC3)n4C)CC2)c2ccccc21` [Compound 397, N-(cyclopropylmethyl)-6-{1-[2-(dimethylamino)ethyl]-2-oxo-1,2-dihydro-1′H-spiro[indole-3,4′-piperidin]-1′-yl}-9-methyl-9H-purine-8-carboxamide] yielded a concentration for half-maximal inhibition (IC50) of 500 to 1500 nM.
